Laboratory results as given in patent publication US11655477B2, “Methods for thaxtomin production and engineered non-native Streptomyces with increased thaxtomin production” (priority 2017, dated 2023).
“Also recorded” adds a separate entry of the source. Like-named read-outs stand apart in the source and are kept apart here.

Columns and labels:
radish seedling = assay: Herbicidal activity assay, radish seedling growth inhibition on agar plates; format: in vivo; settings: for IC50: total seedling length after 6 days, percent inhibition relative to DMSO control, four-parameter logistic fit, read-out: I50 (herbicidal activity, radish seedling assay); for herbicidal activity / growth inhibition toward radish seedling (in words): DMSO as negative control
Experimental: Serial concentrations (0 to 4 μM) of thaxtomins in DMSO were added into 20 mL of 1.5% warm agar solution with gentle agitation. DMSO was included as the negative control. The solution was then poured into the plate for solidification at room temperature for 30 min. Radish seeds (Burpee) were surface disinfested, pregerminated and selected when the radicle was […] and just emerged from the seed coat. Six radish seedlings were equally located on the surface of each plate with the root ends all pointed in the same direction. Agar plates were covered, sealed with Parafilm. The seedlings in the agar plates grew at room temperature under fluorescent lighting (12 h per day for 6 days), and total seedling lengths were then recorded. Three plates were set up for each dosage of each compound. Percent inhibition relative to the mean growth response in DMSO treated control plates was then calculated. Dose-response curves were fit to a four-parameter logistic model as described in Streibig, J C, et al., 1993 (which is hereby incorporated by reference herein), and Iso values were estimated from these curves.

Jurkat cells = assay: MTT assay to characterize cytotoxicity, Jurkat cells; format: cell-based, human; settings: for cytotoxicity toward Jurkat cell line (in words): PBS as negative control; for IC30 (30% inhibitory concentration) toward Jurkat cells: human T-cell leukemia Jurkat, MTT, 48 to 72 h
Experimental: (§1) PC-3 and Jurkat cells were cultured in DMEM or RPM11640 medium containing 10% fetal bovine serum and 100 U/mL penicillin and streptomycin, and maintained at 37° C. in a humidified incubator under 5% CO2. The cells (1×10^4 for Jurkat, and 5,000 for PC-3 in 100 μL) were seeded into 96-well plates and incubated overnight. Varying concentrations of purified compounds (0 μM, 12.5 μM, 25 μM, 50 μM and 100 μM) were added to the wells. After incubation at 37° C. for 48 to 72 h, 10 μL of MTT (5 mg/mL) in PBS was added and incubated for 4 h, followed by aspiration of the medium. DMSO (100 μL) was added to each well to dissolve the MTT in the wells, and the plates were agitated for 1 h for recording the absorbance at 570 nm using UV/vis microplate spectrophotometer (BioTek). Three to six replications were performed per treatment of each sample.

PC-3 cells = assay: MTT assay to characterize cytotoxicity, PC-3 cells; format: cell-based, human; settings: for cytotoxicity toward PC-3 cell line (in words): PC-3, PBS as negative control; for IC30 (30% inhibitory concentration) toward PC-3 cells: prostate cancer PC-3, MTT, 48 to 72 h
Experimental: as §1

cellulose biosynthesis = settings: background statement; cited from earlier work

For `CN1C(=O)[C@](O)(Cc2cccc(O)c2)N(C)C(=O)[C@@H]1Cc1c[nH]c2ccc(F)c([N+](=O)[O-])c12` [Compound 9, 5-F-thaxtomin A], which IC50 (radish seedling; Raphanus sativus, 144 h) is on record?
The IC50 was 0.56 ± 0.03 µM.

What about the “herbicidal activity / growth inhibition toward radish seedling (in words)” value (radish seedling) of the same molecule?
Its value is “potent herbicidal activity; also recorded: potent growth inhibition activity”.

What about the “cytotoxicity toward Jurkat cell line (in words)” value (Jurkat cells) of the same molecule?
The value was “weak cytotoxicity”.

What about the “IC30 (30% inhibitory concentration) toward Jurkat cells” value (Jurkat cells) of the same molecule?
The value was 63.26 ± 9.29 µM.

And the “cytotoxicity toward PC-3 cell line (in words)” value (PC-3 cells)?
Its value is “weak cytotoxicity”.

And the “IC30 (30% inhibitory concentration) toward PC-3 cells” value (PC-3 cells)?
Its value is 56.76 ± 17.12 µM.

Which “cytotoxicity toward Jurkat cell line (in words)” value (Jurkat cells) does the source give for `CN1C(=O)[C@](O)(Cc2ccccc2)N(C)C(=O)[C@@H]1Cc1c[nH]c2cccc([N+](=O)[O-])c12` [Compound 3, thaxtomin B] here?
The value was “weak cytotoxicity”.

What about the “IC30 (30% inhibitory concentration) toward Jurkat cells” value (Jurkat cells) of the same molecule?
Its value is 50.92 ± 13.17 µM.

What about the “cytotoxicity toward PC-3 cell line (in words)” value (PC-3 cells) of the same molecule?
Its value is “weak cytotoxicity”.

What about the “IC30 (30% inhibitory concentration) toward PC-3 cells” value (PC-3 cells) of the same molecule?
The value was 37.87 ± 13.46 µM.

With `CN1C(=O)C(O)(Cc2ccccc2O)N(C)C(=O)C1Cc1c[nH]c2cccc([N+](=O)[O-])c12` (centres unmarked) [Compound 2, ortho-thaxtomin A] as the molecule, how does the “herbicidal activity / growth inhibition toward radish seedling (in words)” value (radish seedling) read?
The value was “potent growth inhibition activity”.

What about the IC50 (radish seedling) of the same molecule?
The IC50 was 0.81 ± 0.04 µM.

And the “cytotoxicity toward Jurkat cell line (in words)” value (Jurkat cells)?
Its value is “weak cytotoxicity”.

What about the “IC30 (30% inhibitory concentration) toward Jurkat cells” value (Jurkat cells) of the same molecule?
The value was 56.46 ± 12.04 µM.

What about the “cytotoxicity toward PC-3 cell line (in words)” value (PC-3 cells) of the same molecule?
Its value is “weak cytotoxicity”.

And the “IC30 (30% inhibitory concentration) toward PC-3 cells” value (PC-3 cells)?
Its value is 42.38 ± 13.62 µM.

Which results are given for `CN1C(=O)[C@](O)(Cc2cccc(O)c2)N(C)C(=O)[C@@H]1Cc1c[nH]c2cccc([N+](=O)[O-])c12` [Compound 1, thaxtomin A, reference compound]?
herbicidal activity / growth inhibition toward radish seedling (in words) (radish seedling): potent growth inhibition activity; IC50 (radish seedling): 0.45 ± 0.05 µM; cytotoxicity toward Jurkat cell line (in words) (Jurkat cells): weak cytotoxicity; IC30 (30% inhibitory concentration) toward Jurkat cells (Jurkat cells): 70.84 ± 16.68 µM; cytotoxicity toward PC-3 cell line (in words) (PC-3 cells): weak cytotoxicity; IC30 (30% inhibitory concentration) toward PC-3 cells (PC-3 cells): 80.28 ± 10.50 µM; concentration range of inhibition of cellulose biosynthesis (cellulose biosynthesis): in the nM range
